Consider ten compounds from paper PMC10935581 (Biochemistry, 2023).

The target in assay [1] is T1, NAMPT (Homo sapiens, UniProt P43490). The settings on record: cited from earlier work.
In assay [2] the target is T1, NAMPT. The experiment in a line: Coupled primary NAMPT enzyme assay. In kind it is biochemical. The settings on record: for HTS outcome (increase of NAMPT enzyme activity): screen of ChemDiv and Microsource Spectrum libraries.
Assay [3] addresses T1, NAMPT. The assay can be described thus: Fluorescence polarization binding assay. On the technique in general: Fluorescence polarisation rises when a labelled molecule tumbles more slowly, as on binding a larger partner.
Assay [4] deals with THP-1 human leukemic monocyte cell line. The assay can be described thus: Cellular NAD+ by miniaturized NADglo assay. In kind it is cell-based. The settings on record: 24 h incubation.
In assay [5] the target is T1, NAMPT. The experiment in a line: Orthogonal NAMPT endpoint assay. In kind it is biochemical.
Assay [6] addresses T1, NAMPT. The assay can be described thus: Uncoupled ATPase reaction of NAMPT. In kind it is biochemical. The settings on record: absence of PRPP.

“Also recorded” adds a separate entry of the source. Where two headings read alike, the source gives them in different places.

T1 sequence (P43490 whole entry): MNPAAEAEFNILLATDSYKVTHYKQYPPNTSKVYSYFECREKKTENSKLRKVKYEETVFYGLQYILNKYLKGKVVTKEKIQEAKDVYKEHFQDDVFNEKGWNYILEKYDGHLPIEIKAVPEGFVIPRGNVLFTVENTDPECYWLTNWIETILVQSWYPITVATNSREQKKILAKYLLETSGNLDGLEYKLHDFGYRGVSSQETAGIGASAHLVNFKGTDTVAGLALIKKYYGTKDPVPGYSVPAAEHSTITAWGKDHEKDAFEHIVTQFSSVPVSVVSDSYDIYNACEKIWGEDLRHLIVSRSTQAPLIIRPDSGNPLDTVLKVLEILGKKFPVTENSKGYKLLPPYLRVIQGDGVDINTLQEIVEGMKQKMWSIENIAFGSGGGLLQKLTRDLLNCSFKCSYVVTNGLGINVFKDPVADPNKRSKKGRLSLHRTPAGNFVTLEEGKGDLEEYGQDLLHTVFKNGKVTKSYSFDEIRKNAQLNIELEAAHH

The Km is the concentration of substrate that gives half-maximal velocity. For the compound `Nc1ncnc2c1ncn2[C@@H]1O[C@H](COP(=O)(O)OP(=O)(O)OP(=O)(O)O)[C@@H](O)[C@H]1O` [ATP], the Km in assay [1] (read-out: KM(ATP)) was 7 mM.

A word on the Ki: it is the dissociation constant of the complex between target and ligand, obtained from inhibition or displacement. With `NC(=O)c1ccc[n+]([C@@H]2O[C@H](COP(=O)([O-])OP(=O)(O)OC[C@H]3O[C@@H](n4cnc5c(N)ncnc54)[C@H](O)[C@@H]3O)[C@@H](O)[C@H]2O)c1` [NAD^+, Nicotinamide adenine dinucleotide], the Ki in assay [1] (read-out: KI for inhibition of NAMPT activity) was 2 µM.

`NC(=O)c1cccnc1` [NAM, nicotinamide]: the Michaelis-Menten constant (Km) in assay [2] (read-out: Apparent KM for NAM, no activator) is about 0.000145 mM.

As to `COc1cccc(NCC(F)Cn2c3ccc(Br)cc3c3cc(Br)ccc32)c1` (stereo not drawn) [P7C3-A20], the “Binding to NAMPT (in words)” value in assay [3] is “did not show any NAMPT binding activity”.

Take `O=C(NCc1ccncc1)Nc1ccc(S(=O)(=O)N2CC3CCC(C2)O3)cc1` [SBI-0797812]: the “Effect on cellular NAD+ (in words)” value in assay [4] is “reducing cellular levels of NAD^+; also recorded: inhibited both NAMPT activity and NAD^+ formation in THP-1 cells”. Also, in assay [5], the “Effect on ATP dependence of NAMPT (KM(ATP), KI(ATP))” value is “significant left-shift in KM(ATP); also recorded: dramatic left-shift in both KM and KI for ATP”. Also, the “NAMPT activity relative to vehicle control” value in assay [5] (ATP 4 mM, NAM 3 or 300 μM, PRPP 40 μM) is given as “Inhibition of NAMPT activity”. The NAMPT activation result in assay [5] (Fig. 2D) was “confirmed to activate NAMPT”. Besides, the “KI(ATP) in presence of activator” value in assay [5] (left-shifted) was under 1000 µM.

Turning to `C/C=C(/C(=C/C)c1ccc(O)cc1)c1ccc(O)cc1` [dienestrol], in assay [2], the “HTS outcome (increase of NAMPT enzyme activity)” value is “validated hits”.

On to `O=c1c(-c2ccc(O)cc2)coc2cc(O)cc(O)c12` [genestein], for which the “HTS outcome (increase of NAMPT enzyme activity)” value in assay [2] is “validated hits”.

As to `COc1ccc(CC(=O)c2ccc(O)cc2O)cc1` [onenetin], the “HTS outcome (increase of NAMPT enzyme activity)” value in assay [2] is on record as “validated hits”.

With `O=c1c(O)c(-c2ccc(O)c(O)c2)oc2cc(O)cc(O)c12` [quercitin], the “NAMPT activation in primary assay” value in assay [2] (at ≤ 40 μM) is recorded as “devoid of activity”.

For orientation: Kd means a measure of binding affinity in units of concentration. A low value points to a tighter complex. Take `C[C@@H]1O[C@@H](Oc2c(-c3ccc(O)c(O)c3)oc3cc(O)cc(O)c3c2=O)[C@H](O)[C@H](O)[C@H]1O` [quercitrin]: in assay [2], the “Maximal activation of NAMPT relative to vehicle control” value is given as “high activation at higher concentrations” and the “HTS outcome (increase of NAMPT enzyme activity)” value was “validated hits”. Also, the “Effect on KM(ATP)” value in assay [2] (rate increased) is given as “without significant effect”. Also, the “Effect on cellular NAD+ (in words)” value in assay [4] is “inactive in cells”. For the same compound, the “Effect on cellular NAD+ (in words)” value in assay [4] (listed as Quercitrin) was “inactive”. For the same compound, in assay [3], the “Binding to NAMPT (in words)” value is “weak binding NAMPT ligand” and the Kd was determined as 16 µM. For the same compound, the “Effect on uncoupled ATP consumption” value in assay [6] is recorded as “increase uncoupled ATP consumption”.
